The structures appear in SMILES notation. Like-named read-outs stand apart in the source and are kept apart here.

One series has as its system S. aureus ATCC29213. Nature of the series: Human serum binding effect: MIC with and without human serum. It is filed as cell-based, Staphylococcus aureus. The conditions noted are these: 1:1 human serum:MHB. Put shortly: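 Serum binding was estimated as the ratio of S. aureus ATCC29213 MIC in 1:1 human serum:Mueller-Hinton broth to MIC without serum. Compounds were serially 2-fold diluted, and wells received an early-log-phase inoculum at 1×10^6 CFU/mL final. Inoculum size was checked by colony counts on TSA after overnight incubation at 35 °C.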

For the next series, the system named is rat serum proteins. Nature of the series: Serum binding determination by ultrafiltration/HPLC. Type of series: in vitro ADME. The conditions noted are these: by HPLC.
Series [1] is described as follows: Pharmacokinetic evaluation in rat (clearance). Conditions: male, Sprague-Dawley (SD), serum, iv, read-out: Pharmacokinetics Clearance (converted). Type of series: in vivo. An excerpt:
Four male SD rats with femoral and jugular vein catheters were obtained from Hilltop Lab Animals, Inc. (Scottdale, Pa.). The catheters in the femoral and jugular veins were filled with 10 units/mL heparin in saline, and kept patent by changing the solution daily. The animals were quarantined for a minimum of two days prior to use, and were maintained on a 12-h light:dark schedule with constant access to food and water before and during the study. On the day of dosing, the animals weighed […] (mean±s.d.).
A 4 mg/mL (active component) dosing solution of mesylate salt of compound 17 was prepared in sterile saline for injection. […] Blood samples (0.2 mL aliquots) were collected from the jugular vein catheter 5, 15, 20, 25, 30, and 45 min, and 1, 2, 3, and 4 h after the start of the infusion. The blood was centrifuged for 10 min and the serum was stored ≦−70° C. until analysis by HPLC.
The plasma concentrations from individual animals were fit to a two-compartment model with zero order input and first-order elimination from the central compartment using weighted nonlinear regression (WinNonlin, Pharsight, Palo Alto, Calif.). Pharmacokinetic parameters were calculated from the fitted parameters using standard equations (Gibaldi M, Perrier D. 1982. Pharmacokinetics, 2nd ed., Marcel Dekker Inc., New York.).

Another series has as its system rhesus serum proteins. Nature of the series: Serum binding determination by ultrafiltration/HPLC. The conditions noted are these: by HPLC. Type of series: in vitro ADME.

With `NCCSCc1nc(SCCN)sc1SC1=C(C(=O)O)N2C(=O)[C@@H](NC(=O)/C(=N\O)c3nc(N)sc3Cl)[C@H]2SC1` [Cmpd 11, (7R)-7-[(Z)-2-(2-amino-5-chlorothiazol-4-yl)-2-(hydroxyimino)acetamido]-3-[4-(2-aminoethylthiomethyl)-2-aminoethylthio-1,3-thiazol-5-ylthio]-3-cephem-4-carboxylic acid], the “Human serum binding effect (ratio of MIC value determined with and without human serum added)” value in the series with S. aureus ATCC29213 is 4.
As to `N=C(N)NCCSCc1ncccc1SC1=C(C(=O)O)N2C(=O)[C@@H](NC(=O)/C(=N\O)c3nsc(N)n3)[C@H]2SC1` [Cmpd 14, (7R)-7-[(Z)-2-(5-amino-1,2,4-thiadiazol-3-yl)-2-(hydroxyimino)acetamido]-3-[2-(2-guanidinoethylthiomethyl)pyrid-3-ylthio]-3-cephem-4-carboxylic acid], in the series with S. aureus ATCC29213, the “Human serum binding effect (ratio of MIC value determined with and without human serum added)” value is listed as 2.
The term clearance denotes a measure of how efficiently the substance is removed, as volume per time. In the case of `NCCSCc1cnccc1SC1=C(C(=O)O)N2C(=O)[C@@H](NC(=O)/C(=N\O)c3cccc(N)n3)[C@H]2SC1` [Cmpd 24, (7R)-7-[(Z)-2-(2-aminopyrid-6-yl)-2-(hydroxyimino)acetamido]-3-[3-(2-aminoethylthiomethyl)pyrid-4-ylthio]-3-cephem-4-carboxylic acid], the “Serum Binding rat (% of compound bound to serum)” value in the series on rat serum proteins turned out to be 52%. In addition, the clearance in series [1] (dose 20.0 mg/kg) is 47.5 mL/min/kg.
Turning to `NCCSCc1ncsc1SC1=C(C(=O)O)N2C(=O)[C@@H](NC(=O)/C(=N\O)c3cccc(N)n3)[C@H]2SC1` [Cmpd 23, (7R)-7-[(Z)-2-(2-aminopyrid-6-yl)-2-(hydroxyimino)acetamido]-3-[4-(2-aminoethylthiomethyl)-1,3-thiazol-5-ylthio]-3-cephem-4-carboxylic acid], the “Serum Binding rat (% of compound bound to serum)” value in the series on rat serum proteins is on record as 77%. Also, in the series with rhesus serum proteins, the “Serum Binding rhesus (% of compound bound to serum)” value came out at 93%. For the same molecule, the clearance in series [1] (dose 20.0 mg/kg) was 13.5 mL/min/kg.
For the molecule `NCCSCc1cnccc1SC1=C(C(=O)O)N2C(=O)[C@@H](NC(=O)/C(=N\O)c3nc(N)sc3Cl)[C@H]2SC1` [Cmpd 20, (7R)-7-[(Z)-2-(2-amino-5-chlorothiazol-4-yl)-2-(hydroxyimino)acetamido]-3-[3-(2-aminoethylthiomethyl)pyrid-4-ylthio]-3-cephem-4-carboxylic acid], the “Serum Binding rat (% of compound bound to serum)” value with rat serum proteins was determined as 71%. Moreover, in the series with rhesus serum proteins, the “Serum Binding rhesus (% of compound bound to serum)” value stood at 77%. The clearance in series [1] (dose 20.0 mg/kg) is 26.5 mL/min/kg. Moreover, the “Human serum binding effect (ratio of MIC value determined with and without human serum added)” value in the series with S. aureus ATCC29213 was 3.
With `NCCSCc1ncccc1SC1=C(C(=O)O)N2C(=O)[C@@H](NC(=O)/C(=N\O)c3nsc(N)n3)[C@H]2SC1` [Cmpd 17, (7R)-7-[(Z)-2-(5-amino-1,2,4-thiadiazol-3-yl)-2-(hydroxyimino)acetamido]-3-[2-(2-aminoethylthiomethyl)pyrid-3-ylthio]-3-cephem-4-carboxylic acid], the “Serum Binding rat (% of compound bound to serum)” value with rat serum proteins is given as 74%. Also, the “Serum Binding rhesus (% of compound bound to serum)” value in the series with rhesus serum proteins was determined as 81%. Moreover, the clearance in series [1] (dose 16.4 mg/kg, mesylate salt, 20 min i.v. infusion) is 8.33 mL/min/kg. The “Human serum binding effect (ratio of MIC value determined with and without human serum added)” value in the series on S. aureus ATCC29213 was determined as 2.
As to `N=C(N)NCCSCc1cnccc1SC1=C(C(=O)O)N2C(=O)[C@@H](NC(=O)/C(=N\O)c3nsc(N)n3)[C@H]2SC1` [Cmpd 25, (7R)-7-[(Z)-2-(5-amino-1,2,4-thiadiazol-3-yl)-2-(hydroxyimino)acetamido]-3-[3-(2-guanidinoethylthiomethyl)pyrid-4-ylthio]-3-cephem-4-carboxylic acid], the “Serum Binding rat (% of compound bound to serum)” value in the series with rat serum proteins was found to be 35%. Besides, the “Serum Binding rhesus (% of compound bound to serum)” value in the series with rhesus serum proteins amounted to 55%. Besides, the clearance in series [1] (dose 20.0 mg/kg) was 18.7 mL/min/kg. Moreover, in the series on S. aureus ATCC29213, the “Human serum binding effect (ratio of MIC value determined with and without human serum added)” value is on record as 1.
Turning to `NCCSCc1cnccc1SC1=C(C(=O)O)N2C(=O)C(NC(=O)/C(=N\O)c3csc(N)n3)C2SC1` (centres unmarked) [Cmpd 19], in the series with rat serum proteins, the “Serum Binding rat (% of compound bound to serum)” value is given as 76%. The “Serum Binding rhesus (% of compound bound to serum)” value in the series with rhesus serum proteins is reported as 83%. Moreover, the clearance in series [1] (dose 42.5 mg/kg) was 20.8 mL/min/kg. Also, in the series with S. aureus ATCC29213, the “Human serum binding effect (ratio of MIC value determined with and without human serum added)” value is given as 2.
For `NCCSCc1ncccc1SC1=C(C(=O)O)N2C(=O)[C@@H](NC(=O)/C(=N\O)c3nc(N)sc3Cl)[C@H]2SC1` [Cmpd 13, (7R)-7-[(Z)-2-(2-amino-5-chlorothiazol-4-yl)-2-(hydroxyimino)acetamido]-3-[2-(2-aminoethylthiomethyl)pyrid-3-ylthio]-3-cephem-4-carboxylic acid], the “Serum Binding rat (% of compound bound to serum)” value with rat serum proteins came out at 85%. Also, the clearance in series [1] (dose 20.0 mg/kg) is 13.2 mL/min/kg. Further, the “Human serum binding effect (ratio of MIC value determined with and without human serum added)” value with S. aureus ATCC29213 came out at 2.
Consider `NCCSCc1nc(N)sc1SC1=C(C(=O)O)N2C(=O)[C@@H](NC(=O)/C(=N\O)c3nc(N)sc3Cl)[C@H]2SC1` [Cmpd 3, (7R)-7-[(Z)-2-(2-amino-5-chlorothiazol-4-yl)-2-(hydroxyimino)acetamido]-3-[4-(2-aminoethylthiomethyl)-2-amino-1,3-thiazol-5-ylthio]-3-cephem-4-carboxylic acid], for which the “Serum Binding rat (% of compound bound to serum)” value with rat serum proteins was 56%. The “Serum Binding rhesus (% of compound bound to serum)” value with rhesus serum proteins is given as 93%. Also, in series [1] (dose 27.5 mg/kg), the clearance is 15.8 mL/min/kg. Further, the “Human serum binding effect (ratio of MIC value determined with and without human serum added)” value with S. aureus ATCC29213 is 4.
For the molecule `NCCSCc1ccncc1SC1=C(C(=O)O)N2C(=O)[C@@H](NC(=O)/C(=N\O)c3nc(N)sc3Cl)[C@H]2SC1` [Cmpd 21, (7R)-7-[(Z)-2-(2-amino-5-chlorothiazol-4-yl)-2-(hydroxyimino)acetamido]-3-[4-(2-aminoethylthiomethyl)pyrid-3-ylthio]-3-cephem-4-carboxylic acid], the “Serum Binding rat (% of compound bound to serum)” value in the series on rat serum proteins worked out at 97%. Besides, the “Serum Binding rhesus (% of compound bound to serum)” value in the series with rhesus serum proteins came out at 97%. In series [1] (dose 20.0 mg/kg), the clearance is 12.2 mL/min/kg. Also, the “Human serum binding effect (ratio of MIC value determined with and without human serum added)” value in the series on S. aureus ATCC29213 is on record as 2.
`NCCSCc1cnccc1SC1=C(C(=O)O)N2C(=O)[C@@H](NC(=O)/C(=N\O)c3nsc(N)n3)[C@H]2SC1` [Cmpd 18, (7R)-7-[(Z)-2-(5-amino-1,2,4-thiadiazol-3-yl)-2-(hydroxyimino)acetamido]-3-[3-(2-aminoethylthiomethyl)pyrid-4-ylthio]-3-cephem-4-carboxylic acid]: the “Serum Binding rat (% of compound bound to serum)” value in the series with rat serum proteins is 55%. Besides, the “Serum Binding rhesus (% of compound bound to serum)” value with rhesus serum proteins was determined as 67%. Further, the clearance in series [1] (dose 20.0 mg/kg) was 36.2 mL/min/kg. The “Human serum binding effect (ratio of MIC value determined with and without human serum added)” value with S. aureus ATCC29213 stood at 2.

(Values after US6723716B1, “7-acylamino-3-heteroarylthio-3-cephem carboxylic acid antibiotics and prodrugs thereof” (Essential Therapeutics, Inc., priority 1999, dated 2004).)
